Consider three compounds from paper PMC8956739, “A synthetic lipopeptide targeting top-priority multidrug-resistant Gram-negative pathogens” (Nature Communications, 2022).

Residues, ends and D or L forms follow the SMILES beside them.

The test system of one data set is P. aeruginosa PAM2035. It is filed as cell-based, Pseudomonas aeruginosa. The settings on record: nitrocefin hydrolysis, without Mg2+. As to the method: Bacterial strains were seeded in 50 mL of Luria-Bertani (LB) broth at OD600 0.05 and grown at 37 °C for 3-4 h until an OD600 of 0.6–0.8 was achieved. Bacterial cells were washed twice with 25 mL of buffer (50 mM sodium phosphate, 0.5% glucose, pH 7, with or without 1 mM Mg^2+), resuspended in 10 mL of the buffer, and then adjusted to an OD600 of 0.4. […] Bacterial suspension (50 μL, OD600 0.4) in buffer was added to the lipopeptide solutions and the rate of substrate hydrolysis was measured at 490 nm.
Activity of F365 and polymyxin B in the outer membrane permeabilization assay.
The outer and inner membranes of gram-negative bacteria are the sites of interaction and action of polymyxin antibiotics, respectively. These polycationic compounds bind to phosphate residues of lipid A and displace the magnesium and calcium ions that cross-bridge adjacent lipid A molecules thereby stabilizing the outer membrane. […]
as the main mechanism of action by polymyxin B and colistin. The outer membrane-permeabilizing effect of F365 at a wide range of concentrations was assessed by examining the rates of hydrolysis of a chromogenic β-lactam, nitrocefin, by intact cells of Pseudomonas aeruginosa. […]

Data set [1] has as its system female cynomolgus monkeys. More on the design: method as in earlier work. The settings on record: 3.8 mg/kg/12 h (7.6 mg/kg/day) for 7 days ref 27; cited from earlier work.
Data set [2] is described as follows: Acute toxicity in mice (maximum tolerated dose, IV bolus). It is filed as in vivo, mouse. The settings on record: mouse, in vivo, iv, single IV bolus dose, replicates 1-4; read-out: MTD, single replicate. The essentials:
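Female Swiss mice (7 weeks, 22–28 g) given single IV tail-vein bolus of lipopeptide in 0.9% saline, dosed as mg/kg free base. Clinical toxicity signs monitored over 0–24 h, most frequently in first 2 h.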

Another data set deals with cynomolgus monkeys. As to the kind of experiment: 14-day repeat-dose GLP toxicology study. The settings on record: cynomolgus monkey, in vivo. As to the method: (§1) A 14-day repeat-dose GLP toxicology study of F365 was conducted in Cynomolgus monkeys. The study complied with the OECD Principles of Good Laboratory Practice. […] Cynomolgus monkeys were approximately 2–4 years of age and weighed between 2.0 and 2.9 kg at the start of treatment. Four male and four female cynomolgus monkeys were used for each dose group. F365 (in 0.9% sodium chloride for injection) was administered four times daily (i.e. 6 h ± 15 min apart) as 60-min intravenous infusion at 5, 20, and 50 mg/kg/day for 14 consecutive days; the reference item (vehicle control) was also administered. Assessments of mortality checks, clinical observations, body weight, ophthalmology, and electrocardiography were conducted. Blood and urine samples were collected pre-treatment and at the end of the dosing period for hematology, clinical chemistry, coagulation, and urinalysis assessments. Other blood samples were collected after the first and last dose for toxicokinetic assessment. Following the end of the 14-day dosing period, animals were euthanized on Day 16 and examined macroscopically. Organ weights and macroscopic observations were recorded at necropsy for all groups. Histopathological examinations were performed on the specified tissues and organ list for animals across all groups.

Data set [3] in a line: 14-day repeat-dose GLP toxicology study. The settings on record: cynomolgus monkey, in vivo. As to the method: as §1
A short description of data set [4]: Distribution, accumulation and metabolism in mouse kidneys (ME-SALDI-MS imaging, histology). It is filed as in vivo. To be noted: mouse, in vivo. Here is the method: At 2 h after the last dose on Day 2, mice were rapidly euthanized. The left kidney was collected, flash-frozen in liquid nitrogen, and stored at -80 C for MS imaging analysis. The right kidney was fixed in 10% formalin for histological examination (Histopathology and Organ Pathology Unit at the University of Melbourne). The level of histological damage to the kidneys was graded as previously described. […] A total of 1 μL was spotted onto electrochemically etched, porous-silicon semiconductor substrates for desorption/ionization on silicon (DIOS)[39]. […] For lipopeptide distribution in mouse kidneys, serially sectioned 8-μm frozen slices of the kidney were loaded onto DIOS substrates and coated with a thin layer of α-CHCA using a matrix sprayer (TM-Sprayer, HTX) for MSI analysis. […] Mounted tissue was scanned for imaging alignment (Epson Perfection […]) and calibrated as previously described. Resulting polymyxin maps were visualized and normalized against the total ion current (TIC) of each section using IonView software (Shimadzu). Lipopeptide accumulation in mouse kidneys was determined by simultaneous […] analysis of kidney tissue from treated animals and serial dilutions of the drug deposited on control kidney tissue. […] The signal intensities were compared to the corresponding concentration standard curve to calculate the concentration of lipopeptide present. Putative metabolites in the kidneys treated with lipopeptides were identified by […]. Control kidney sections were used to differentiate lipopeptide metabolites from endogenous metabolites and MS/MS data from lipopeptide standards were used to differentiate lipopeptide metabolites from the parent ion generated via CID processed in the acquisition software (MALDI Solutions, Shimadzu). Levels of accumulated lipopeptide metabolites were determined by normalization to the parent ion in MSI data.

Regarding Polymyxin B [reference compound], the “IC50 for membrane permeabilization” value in the data set with P. aeruginosa PAM2035 stood at 1.15 ± 0.22 µg/mL. In addition, the kidney findings result in data set [1] was “increased histological damage in all test animals”.
A word on the MTD: it is the largest dose that counted as tolerated. On to `CCCCCCCC(=O)N[C@@H](CCN)C(=O)N[C@H](C(=O)N[C@@H](CN)C(=O)N[C@H]1CCNC(=O)[C@H]([C@@H](C)O)NC(=O)[C@H](CCN)NC(=O)[C@H](CCN)NC(=O)[C@H](CC)NC(=O)[C@@H](CC(C)C)NC(=O)[C@H](CCN)NC1=O)[C@@H](C)O` [Lipopeptide F287] (HELM PEPTIDE1{[CCCCCCCC(=O)[*:2]].[Dab].T.[NC[C@H](N[*:1])C(=O)[*:2]].[Dab].[Dab].[dL].[Abu].[Dab].[Dab].T}$PEPTIDE1,PEPTIDE1,5:R3-11:R2$$$V2.0), for which the MTD in data set [2] turned out to be 6 mg/kg.
By NOAEL is commonly meant the highest tested level that showed no adverse finding. In general, AUC(0-t) refers to the area under the concentration-time curve up to a stated or last time point. Read a low AUC(0-t) as low exposure. `CC[C@@H]1NC(=O)[C@@H](CC(C)C)NC(=O)[C@H](CCN)NC(=O)[C@@H](NC(=O)[C@H](CN)NC(=O)[C@@H](NC(=O)[C@H](CCN)NC(=O)c2ccc(Cl)cc2Cl)[C@@H](C)O)CCNC(=O)[C@H]([C@@H](C)O)NC(=O)[C@H](CCN)NC(=O)[C@H](CCN)NC1=O` [Lipopeptide F365] (HELM PEPTIDE1{[O=C(c1ccc(Cl)cc1Cl)[*:2]].[Dab].T.[NC[C@H](N[*:1])C(=O)[*:2]].[Dab].[Dab].[dL].[Abu].[Dab].[Dab].T}$PEPTIDE1,PEPTIDE1,5:R3-11:R2$$$V2.0): the “estimated dose that can be safely administered to patients” value with cynomolgus monkeys was “at least 6.5 mg/kg/day”. The Kidney histopathology with cynomolgus monkeys (5 mg/kg) is 8/8 no changes. In data set [3], the NOAEL was ≥ 20 mg/kg/day. Also, the AUC(0-t) came out at 24 µg·h/mL in data set [3] (5 mg/kg, Plasma AUC0-24 Day 1); 26.4 µg·h/mL in data set [3] (5 mg/kg, Plasma AUC0-24 Day 14); 97.2 µg·h/mL in data set [3] (20 mg/kg, Plasma AUC0-24 Day 1); 110 µg·h/mL in data set [3] (20 mg/kg, Plasma AUC0-24 Day 14); 246 µg·h/mL in data set [3] (50 mg/kg, Plasma AUC0-24 Day 1); 378 µg·h/mL in data set [3] (50 mg/kg, Plasma AUC0-24 Day 14). For the same compound, in the data set on P. aeruginosa PAM2035, the “IC50 for membrane permeabilization” value is given as 0.73 ± 0.07 µg/mL. For the same compound, the level at time molar in data set [4] (female, Swiss, 10 umol/kg, 10 μmol/kg SC, 6 doses Day 1 and 3 doses Day 2, 2 h after last dose, read-out: Concentration in the kidney cortex region) is 20.8 µM. Further, the “M1 metabolite in kidneys” value in data set [4] is reported as “no M1 metabolite detected”. The “major metabolite in kidneys” value in data set [4] was “M3”. Besides, the MTD in data set [2] stood at 13 mg/kg.
